Assay results as given in patent publication US8263772B2, “MCH receptor antagonists” (Eli Lilly and Company, priority 2006, dated 2012).
pKi: −log10 of the molar value. Counter-ions that a name gives are not always drawn.

Tests used:
[1] = test system: diet-induced obese male Long-Evans rats; assay: In vivo efficacy: food intake and body weight change in diet-induced obese rats; parameters: species or system rat; settings: 10 mg/Kg, oral gavage once a day for 3 days
Protocol: Vehicle consisted of 10% acacia and 0.15% saccharin in water.
House animals individually in a temperature regulated room (24° C.) with a reverse 12 hour light/dark cycle (dark 10:00/22:00). Make water and food (Teklad 95217, Harlan, Wis.) available ad libitum. Dose compounds orally once a day before onset of dark for 3 days. Measure daily food intake and body weight change for the 3 day period. The compound of Example 25 produces an average body weight reduction of about 6 grams@10 mg/Kg versus vehicle control.

MCHR1 = biological target: T1, MCHR1 (Homo sapiens, UniProt Q99705); assay: 125I-MCH competitive binding assay with clone 43 membranes (SPA); settings: 125I-MCH binding, Ki from IC50 by Cheng-Prusoff
T1 construct: The full-length cDNA for human MCHR1 is cloned; expressed in transfected cells; host or cells: AV12 cells previously transfected with Gα15; membranes
T1 sequence (Q99705 whole entry): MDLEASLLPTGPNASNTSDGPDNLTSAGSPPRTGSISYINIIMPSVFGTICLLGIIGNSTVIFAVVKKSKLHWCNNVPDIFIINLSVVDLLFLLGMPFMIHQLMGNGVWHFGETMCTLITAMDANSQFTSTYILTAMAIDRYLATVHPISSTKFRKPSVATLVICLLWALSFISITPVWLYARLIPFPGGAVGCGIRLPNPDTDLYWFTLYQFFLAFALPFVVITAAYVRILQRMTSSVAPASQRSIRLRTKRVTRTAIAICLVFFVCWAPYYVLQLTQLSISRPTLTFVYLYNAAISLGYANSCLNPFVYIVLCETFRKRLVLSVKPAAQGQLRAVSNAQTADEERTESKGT
Protocol: The full-length cDNA for human MCHR1 is cloned from a human adult brain cDNA library (Edge Biosystems, Cat. 38356) by standard polymerase chain reaction (PCR) methodology employing the following primers: sense, 5′-GCCACCATGGACCT GGAAGCCTCGCTGC-3′; anti-sense, 5′-[…]-3′. The PCR reaction is performed in a final volume of 50 μL containing 5 μL of a 10× stock solution of PCR buffer, 1 μL of 10 mM dNTP mixture (200 μM final), 2 μl of 50 mM Mg(SO4) (2 mM final), 0.5 μL of 20 μM solutions of each primer (0.2 μM final), 5 μL of template cDNA containing 0.5 ng DNA, 0.5 μL of Platinum Taq High Fidelity DNA polymerase (Gibco Life Technologies) and 36 μL of H2O. […]
In order to generate cell lines stably expressing MCHR1, subclone the insert into the Xba I and Not I sites of pcDNA(+)-3.1-neomycin (Invitrogen). […] The G418-resistant colonies are further selected for MCHR1 expression by measuring MCH-stimulated Ca^2+ transients with a fluorometric imaging plate reader (FLIPR, Molecular Devices). […]
Binding of compounds to MCHR1 is assessed in a competitive binding assay employing ^125I-MCH, compound and clone 43 membranes. […] Non-specific binding is assessed in the presence of 0.1 μM unlabeled MCH. Bound ^125I-MCH is determined by placing sealed plates in a Microbeta Trilux (Perkin Elmer Life and Analytical Sciences Inc.) and counting after a 12 h delay. […]

| SMILES | average body weight reduction versus vehicle control [1] | pKi (MCHR1) |
| --- | --- | --- |
| COc1cc(N2CCc3cc(-c4ccc(Cl)cc4)sc3C2=O)ccc1NC(=O)CN1CCCC1.Cl [Example 25, N-{4-[2-(4-Chloro-phenyl)-7-oxo-4,7-dihydro-5H-thieno[2,3-c]pyridin-6-yl]-2-methoxy-phenyl}-2-pyrrolidin-1-yl-acetamide hydrochloride] | about 6 grams |  |
| O=C(CN1CCCC1)Nc1ccc(-n2ccc3cc(-c4ccc(Cl)cc4)sc3c2=O)cc1 [Example 58, N-{4-[2-(4-Chloro-phenyl)-7-oxo-7H-thieno[2,3-c]pyridin-6-yl]-phenyl}-2-pyrrolidin-1-yl-acetamide, hydrochloride] |  | ~8.52 |
